Measurements published in US8987257B2 (Novartis AG, priority 2011, dated 2015).

Assays:
H4 mCherry-GFP-LC3 cells = assay: Test 4: Autophagy Assay (mCherry-GFP-LC3 reporter, high-content imaging); format: cell-based; conditions: Homo sapiens, 16-18 h
From the text: Autophagy is a catabolic pathway that degrades bulk cytosol in lysosomal compartments enabling amino acids and fatty acids to be recycled. […] To quantify autophagy induction by mTOR inhibitors, we use a mCherry-GFP-LC3 reporter which is amenable to retroviral delivery into mammalian cells, stable expression and analysis by fluorescence microscopy.
Described hereinafter is an imaging protocol and image recognition algorithm to visualize and measure changes in the autophagic pathway.
Quantification of Autophagy Using High-Content Imaging and Analysis
• 1. Day 0: Cell plating. Subconfluent H4 mCherry-GFP-LC3 cells are harvested by trypsinization, resuspended in growth medium, and counted (H4 cells: Human neuroglioma cell line (ATCC)). A cell suspension of 66′000 cells/mL is prepared and 30 μL are added into the wells of a 384-well plate using an electronic multichannel pipette. […] The cell plates are briefly spun down and placed at 37° C. and 5% CO2. • 2. Day 1: Compound treatment. Compound dose responses are prepared in DMSO. The dose responses are then diluted 1:50 in medium. 10 ul of the diluted compound is added to 30 ul of cells, yielding a final 1:200 dilution of the original compound and final of 0.5% DMSO. Compound-treatments are performed in triplicates. The 384-well plates are placed at 37° C. and 5% CO2. Compound treatment is performed for 16-18 h (see Note 1). • 3. Day 2: Cell fixation. Cells are fixed by adding 10 μL/well 5× concentrated Mirsky's fixative supplemented with 25 μg/mL Hoechst33342. […] The 384-well plate is briefly spun down and incubated for 1 h at room temperature. Cells are then washed using a 384-well plate washer using a protocol which aspirates the volume down to 10 μL/well before dispensing 100 μL/well 1×TBS. Aspiration and dispensing steps are repeated 4 times and a final volume of 100 μL/well is left. The plate is sealed using an adhesive PCR foil. • 4. Imaging. The bottom of the plate is cleaned with 70% ethanol and then imaged using the InCell 1000 automated epifluorescence microscope. 20× magnification is used and 4 different areas (fields) are imaged per well, this typically captures a total of around 400 cells per well. Hoechst33342 images are acquired using an excitation of 360 nm (D360—40× filter), an emission of 460 nm (HQ460—40M filter) and an exposure time of 150 ms. GFP images are acquired using an excitation of 475 nm (S47520× filter), an emission of 535 nm (HQ535—50M filter) and an exposure time of 1 s. mCherry images are acquired using an excitation of 535 nm (HQ535—50× filter), an emission of 620 nm (HQ620—60M filter) and an exposure time of 1 s. A quadruple band pass mirror is used for all images. • 5. Image analysis. The InCell Analysis software is used to analyze the images using the Multi Target Analysis algorithm. First, nuclei are detected in the Hoechst33342 image using top-hat segmentation and a minimal nuclear area of 50 μm^2. Cells are defined using a collar of 10 μm around the nuclei. Second, puncta (organelles) are identified in the mCherry image inside the cells using multi-top-hat segmentation. Third, the mask of the mCherry puncta is transferred onto the GFP image. Fourth, the GFP fluorescence intensity inside the mCherry puncta mask is measured (reference intensity). • 6. The ‘organelles’ parameter reflects mCherry-positive puncta of the mCherry-GFP-LC3 reporter and is used to calculate ‘LC3 puncta/cell’. For this purpose, the number of organelles is calculated per cell and averaged over all the cells in a given well (average per cell basis). mCherry-positive LC3 puncta numbers (y-axis) are plotted against the compound dose response values (x-axis) and EC50 values are calculated for each compound. EC50 values represent compound potency in terms of autophagy activation (e.g. increase in mCherry-positive LC3 puncta count). Notes • 1. Autophagy-modulation and redistribution of mCherry-GFP-LC3 can be already observed after a compound treatment time of 3-4 h. […]

FRAP1/mTOR = FRAP1/mTOR (Homo sapiens (Human), UniProt P42345); assay: Test 2: mTOR Biochemical Assay (FRAP1/mTOR TR-FRET tracer assay); format: binding; conditions: mTOR Kinase Tracer 314
Method: IC50s for mTOR interacting compounds were assessed using the FRAP1/mTOR TR-FRET tracer assay (Invitrogen by Life Technologies). […] Compounds were serially diluted in DMSO (12-point, 4× dilution factor) and 1 μL of diluted compound was then added to each well and mixed by pipetting using a Biomek FX (Beckman Coulter).

[1] = test system: constitutively active mTOR; assay: Test 3: TSC Assay (high content imaging of phospho-S6 (240/244) in TSC1−/− MEFs); format: cell-based; conditions: Mus musculus, pS6 240/244 staining, 2 hrs compound treatment
Method: This assay generates IC50 values for compounds that inhibit mTOR.
Quantification of pS6 Staining Using High-Content Imaging and Analysis
Day 0: Cell plating. Subconfluent TSC1−/− MEFs are harvested by trypsinization, resuspended in growth medium, and counted. […] The plates are briefly spun down and placed at 37° C. and 5% CO2. • 2. Day 1: Cell plates are washed into a PBS starve solution (contains glucose, sodium bicarbonate, HEPES and phenol red) using a 384-well plate washer. The wash protocol aspirates the volume down to 30 μL/well before dispensing 60 μL/well of the PBS starve solution. Aspiration and dispensing steps are repeated 8 times and a final volume of 30 μL/well is left. The cell plates are placed at 37° C. and 5% CO2 for 2 hrs. • Compound treatment. Compound dose responses are prepared in DMSO. The dose responses are then diluted 1:50 in medium. 10 ul of the diluted compound is added to 30 ul of cells, yielding a final 1:200 dilution of the original compound and final of 0.5% DMSO. Compound-treatments are performed in triplicates. The plates are placed at 37° C. and 5% CO2 for 2 hrs. Cells are then fixed by adding 10 μL/well 5× concentrated Mirsky's fixative. […] The cell plates are briefly spun down and incubated for 1 h at room temperature. Cells are then washed using a 384-well plate washer using a protocol which aspirates the volume down to 30 μL/well before dispensing 60 μL/well 1×TBS. Aspiration and dispensing steps are repeated 8 times and then an additional aspiration step leaves a final volume of 10 μL/well. Block buffer (1×TBS+0.1% Triton X-100+0.1% BSA) is then added at 25 μL/well and the plates are incubated at room temperature for 30 min. The cell plates are then aspirated down to 10 μL/well. […] Plates are incubated overnight at 4° C. • 3. […] The bottom of the plate is cleaned with 70% ethanol and then imaged using the InCell 1000 automated epifluorescence microscope. […] Cy5 images are acquired using an excitation of 620 nm (Chroma 620—60× filter), an emission of 700 nm (Chroma HQ700—75M filter) and an exposure time of 200 ms. A double band pass mirror is used for all images. • 4. Image analysis: The InCell Analysis software is used to analyze the images using the Dual Object algorithm. […] The Cy5 fluorescence intensity inside the collar is measured (cell intensity) and results are reported on an “Average per cell” basis. • 5. IC50 calculation: IC50s are calculated by plotting the cell intensity values on the y-axis with dose response values on the x-axis. IC50 values represent compound potency against mTOR.

PI3Kα = PI3Kα (Homo sapiens (Human), UniProt P42336); assay: Test 1: PI3 Kinase Assay (PI3K KinaseGlo assay); format: biochemical; conditions: 1 μM ATP
Method: L-a-phosphatidylinositol (PI), provided as 10 mg/ml solution in methanol, was transferred into a glass tube and dried under nitrogen beam. It was then resuspended in 3% OctylGlucoside (OG) by vortexing and stored at 4° C. The KinaseGlo Luminescent Kinase Assay (Promega, Madison/WI, USA) is a homogeneous HTS method of measuring kinase activity by quantifying the amount of ATP remaining in solution following a kinase reaction.
Kinase reactions were started by addition of 5 μl of ATP-mix containing in a final volume 10 μL 10 mM TRIS-HCl pH 7.5, 3 mM MgCl2, 50 mM NaCl, 0.05% CHAPS, 1 mM DTT and 1 μM ATP, and occurred at room temperature.
The PI3Kα construct is a fusion of p85α iSH2 domain and the respective p110 isoform. The p85α fragment and p110 isoform gene were generated by PCR from first strand cDNA generated by RT-PCR from commercial RNA from placenta, testis and brain as described below.
The p85 fragment was derived from plasmid p1661-2 digested with Nhe/Spe. The p110α fragment derived from its clone was verified by sequencing and used in LR410 as a SpeI/HindIII fragment. For the generation of the baculovirus expression vector LR410 the gateway LR reaction to transfer the insert into the Gateway adapted pBlueBac4.5 (Invitrogen) vector was used. The cloning vector pBlueBac4.5 (Invitrogen) was digested with Nhe/HindIII. […] The two reverse primers overlap and incorporate a 12×Gly linker and the N-terminal sequence of the p110α gene to the SpeI site. The PCR fragment was cloned into pCR2.1 TOPO (Invitrogen). Of the resulting clones, p1661-2 was determined to be correct by sequencing. This plasmid was digested with Nhe and SpeI and the resulting fragment was gel-isolated and purified for sub-cloning.
PI3Kα was purified in two chromatographic steps: immobilized metal affinity chromatography (IMAC) on a Ni sepharose resin (GE Healthcare) and gel filtration utilizing a Superdex 200 26/60 column (GE Healthcare). All buffers were chilled to 4° C. and lysis was performed chilled on ice. Column fractionation was performed at room temperature.

[2] = Table 1, mCherry-positive LC3 puncta/cell
[3] = Table 4 (unit inferred), mCherry-positive LC3 puncta/cell

Chain of PI3Kα (P42336 other isoform, or with tags, fused parts or gaps): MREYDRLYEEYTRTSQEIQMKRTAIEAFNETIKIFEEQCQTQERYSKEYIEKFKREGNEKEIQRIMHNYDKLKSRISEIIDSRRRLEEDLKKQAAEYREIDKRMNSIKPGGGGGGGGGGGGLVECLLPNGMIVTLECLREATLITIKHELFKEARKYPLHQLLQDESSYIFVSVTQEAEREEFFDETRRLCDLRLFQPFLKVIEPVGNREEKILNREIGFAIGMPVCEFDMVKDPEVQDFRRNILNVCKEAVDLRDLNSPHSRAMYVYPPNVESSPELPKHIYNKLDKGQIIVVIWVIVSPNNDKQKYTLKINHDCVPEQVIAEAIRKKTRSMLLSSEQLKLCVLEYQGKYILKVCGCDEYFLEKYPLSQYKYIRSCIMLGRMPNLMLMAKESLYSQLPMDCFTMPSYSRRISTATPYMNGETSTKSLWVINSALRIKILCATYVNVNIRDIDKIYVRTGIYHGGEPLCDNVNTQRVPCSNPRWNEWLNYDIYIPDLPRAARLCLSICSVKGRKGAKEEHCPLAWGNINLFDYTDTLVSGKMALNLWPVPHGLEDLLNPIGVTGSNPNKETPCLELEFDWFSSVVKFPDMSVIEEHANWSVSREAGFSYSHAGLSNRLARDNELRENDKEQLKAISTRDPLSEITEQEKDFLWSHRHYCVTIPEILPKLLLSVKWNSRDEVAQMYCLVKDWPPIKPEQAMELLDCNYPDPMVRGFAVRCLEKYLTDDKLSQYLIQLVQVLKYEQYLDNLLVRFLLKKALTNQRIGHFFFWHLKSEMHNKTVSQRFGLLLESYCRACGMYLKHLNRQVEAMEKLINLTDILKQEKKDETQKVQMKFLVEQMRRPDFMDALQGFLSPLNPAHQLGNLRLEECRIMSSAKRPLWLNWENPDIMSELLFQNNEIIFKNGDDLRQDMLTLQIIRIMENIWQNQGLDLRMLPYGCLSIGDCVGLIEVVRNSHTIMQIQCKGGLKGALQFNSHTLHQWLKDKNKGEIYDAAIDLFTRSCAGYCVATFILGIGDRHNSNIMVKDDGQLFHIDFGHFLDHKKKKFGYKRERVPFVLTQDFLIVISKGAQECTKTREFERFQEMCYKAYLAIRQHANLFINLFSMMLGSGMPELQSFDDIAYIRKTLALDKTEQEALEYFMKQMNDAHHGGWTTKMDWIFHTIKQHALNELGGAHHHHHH
Chain of FRAP1/mTOR (P42345 1360-2549): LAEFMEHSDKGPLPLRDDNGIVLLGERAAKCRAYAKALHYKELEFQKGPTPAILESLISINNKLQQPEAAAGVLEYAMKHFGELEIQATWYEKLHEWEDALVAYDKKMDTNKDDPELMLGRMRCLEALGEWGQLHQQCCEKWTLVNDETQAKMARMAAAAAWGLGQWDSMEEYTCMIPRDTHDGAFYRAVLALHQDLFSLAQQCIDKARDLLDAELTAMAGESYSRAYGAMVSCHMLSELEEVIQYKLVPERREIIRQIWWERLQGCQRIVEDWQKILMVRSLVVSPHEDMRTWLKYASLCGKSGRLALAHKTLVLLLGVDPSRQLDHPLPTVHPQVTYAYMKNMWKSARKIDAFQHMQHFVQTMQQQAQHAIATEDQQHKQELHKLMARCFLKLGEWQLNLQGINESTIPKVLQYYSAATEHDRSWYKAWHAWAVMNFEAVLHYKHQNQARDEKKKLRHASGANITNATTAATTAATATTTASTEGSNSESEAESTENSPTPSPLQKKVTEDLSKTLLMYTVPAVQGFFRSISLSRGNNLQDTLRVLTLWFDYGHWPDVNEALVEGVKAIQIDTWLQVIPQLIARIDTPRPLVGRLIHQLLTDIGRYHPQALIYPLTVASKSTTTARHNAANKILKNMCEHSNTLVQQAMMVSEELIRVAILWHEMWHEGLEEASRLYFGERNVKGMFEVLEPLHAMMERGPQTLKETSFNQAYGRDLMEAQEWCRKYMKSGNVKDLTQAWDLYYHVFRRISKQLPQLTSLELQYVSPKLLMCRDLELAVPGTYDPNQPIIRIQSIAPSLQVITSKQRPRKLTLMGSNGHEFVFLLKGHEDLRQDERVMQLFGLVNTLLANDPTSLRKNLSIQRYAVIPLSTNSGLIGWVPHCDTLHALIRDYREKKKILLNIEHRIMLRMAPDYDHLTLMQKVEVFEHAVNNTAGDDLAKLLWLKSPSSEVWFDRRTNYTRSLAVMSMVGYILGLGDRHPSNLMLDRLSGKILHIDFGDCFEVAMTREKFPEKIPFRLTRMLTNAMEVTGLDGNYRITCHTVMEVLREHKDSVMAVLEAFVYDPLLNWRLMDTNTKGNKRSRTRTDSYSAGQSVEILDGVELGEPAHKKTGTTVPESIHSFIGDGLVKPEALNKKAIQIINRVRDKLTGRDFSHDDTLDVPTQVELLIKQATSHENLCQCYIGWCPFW

Compound | EC50 (H4 mCherry-GFP-LC3 cells; [2]) [nM] | IC50 (FRAP1/mTOR) [nM] | IC50 [1] [nM] | IC50 (PI3Kα) [nM] | EC50 (H4 mCherry-GFP-LC3 cells; [3]) [nM]
C[C@H]1COCCN1c1nc(N2CCOCC2)nc2[nH]c(-c3cccc4[nH]ccc34)nc12 [Example 23, 8-(1H-Indol-4-yl)-6-((S)-3-methyl-morpholin-4-yl)-2-morpholin-4-yl-9H-purine] | 1610 | 14 | 138 | 5510 | –
CC1(C)COCCN1c1nc(N2CCOCC2)nc2[nH]c(-c3cccc4[nH]ccc34)nc12 [Example 40, 6-(3,3-Dimethyl-morpholin-4-yl)-8-(1H-indol-4-yl)-2-morpholin-4-yl-9H-purine] | – | 350 | 841 | 6470 | > 8000
c1cc(-c2nc3c(N4CC5CCC(C4)O5)nc(N4CCOCC4)nc3[nH]2)c2cc[nH]c2c1 [Example 8, 8-(1H-Indol-4-yl)-2-morpholin-4-yl-6-(8-oxa-3-aza-bicyclo[3.2.1]oct-3-yl)-9H-purine] | 731 | 41 | 127 | > 9100 | –
C[C@H]1COCCN1c1nc(N2CCC(O)CC2)nc2[nH]c(-c3cccc4[nH]ccc34)nc12 [Example 16, 1-[8-(1H-Indol-4-yl)-6-((S)-3-methyl-morpholin-4-yl)-9H-purin-2-yl]-piperidin-4-ol] | 2000 | 160 | 460 | 7300 | –
c1cc(-c2nc3c(N4CCOCC4)nc(N4CCOCC4)nc3[nH]2)c2cc[nH]c2c1 [Example 26, 8-(1H-Indol-4-yl)-2,6-di-morpholin-4-yl-9H-purine] | 184 | 8 | 81 | 570 | –
CS(=O)(=O)Nc1cccc(-c2nc3c(N4CCOCC4)nc(N4CCOCC4)nc3[nH]2)c1 [Example 33, N-[3-(2,6-Di-morpholin-4-yl-9H-purin-8-yl)-phenyl]-methanesulfonamide] | 7730 | 380 | 2990 | > 9100 | –
C[C@@H]1COCCN1c1nc(N2CCOCC2)nc2[nH]c(-c3ccc4cc[nH]c4c3)nc12 [Example 21, 8-(1H-Indol-6-yl)-6-((R)-3-methyl-morpholin-4-yl)-2-morpholin-4-yl-9H-purine] | 498 | 237 | 831 | > 9100 | –
C[C@@H]1COCCN1c1nc(N2CCOC[C@@H]2C)nc2[nH]c(-c3cccc4[nH]ccc34)nc12 [Example 43, 8-(1H-Indol-4-yl)-2-((S)-3-methyl-morpholin-4-yl)-6-((R)-3-methyl-morpholin-4-yl)-9H-purine] | – | 40 | 39 | 1010 | 160
c1cc(-c2nc3c(N4C5CCC4COC5)nc(N4CCOCC4)nc3[nH]2)c2cc[nH]c2c1 [Example 54, 8-(1H-Indol-4-yl)-2-morpholin-4-yl-6-(3-oxa-8-aza-bicyclo[3.2.1]oct-8-yl)-9H-purine] | – | 150 | 309 | 5790 | 1250
Oc1cccc(-c2cc3c(N4CCOCC4)nc(N4CCOCC4)nc3[nH]2)c1 [Example 2, 3-(2,4-Di-morpholin-4-yl-7H-pyrrolo[2,3-d]pyrimidin-6-yl)-phenol] | 363 | 40 | 300 | 1060 | –
c1cc2ccc(-c3nc4c(N5CCOCC5)nc(N5CCOCC5)nc4[nH]3)cc2[nH]1 [Example 28, 8-(1H-Indol-6-yl)-2,6-di-morpholin-4-yl-9H-purine] | > 200 | 372 | 458 | 9050 | –
c1cc2ncc(-c3nc4c(N5CCOCC5)nc(N5CCOCC5)nc4[nH]3)cc2[nH]1 [Example 13, 2,6-Di-morpholin-4-yl-8-(1H-pyrrolo[3,2-b]pyridin-6-yl)-9H-purine] | 8530 | 469 | 2780 | 430 | –
